The source of these data is ChEMBL document CHEMBL5620433, “Design and synthesis of new 1,2,3-triazoles derived from eugenol and analogues with in vitro and in vivo activity against Trypanosoma cruzi” (Eur J Med Chem, 2023).

The test system of series [1] is Trypanosoma cruzi. Kind of series: Anti-trypanosomal activity against epimastigote form of Trypanosoma cruzi by resazurin microtiter assay. In kind it is functional, organism-based.
Series [2] has as its system Trypanosoma cruzi. Kind of series: Anti-trypanosomal activity against trypomastigote form of Trypanosoma cruzi Y infected in mouse assessed as reduction in parasitemia at 100 mg/kg, po for 7 days. The conditions noted are these: 168 h, time 7 day. In kind it is functional.
Series [3] has as its system Trypanosoma cruzi. Kind of series: Antitrypanosomal activity against epimastigote form of Trypanosoma cruzi Y assessed as inhibition of parasite proliferation incubated for 72 hrs by resazurin dye based analysis. In kind it is functional, organism-based.
The nature of series [4]: Selectivity index, ratio of CC50 for cytotoxicity against rat H9c2 cells to IC50 for antitrypanosomal activity against epimastigote form of Trypanosoma cruzi Y. It counts as toxicity, cell-based. The note with it: read-out: Ratio IC50.
Series [5] in a line: (§1) Cytotoxicity against rat H9c2 cells assessed as reduction in cell viability measured after 72 hrs by resazurin due based analysis. It counts as toxicity. The note with it: rat, H9c2 cells.
In series [6] the target is Cruzipain (Trypanosoma cruzi) (UniProt P25779). Kind of series: Inhibition of recombinant Trypanosoma cruzi Cruzain using Z-FR-AMC as substrate at 100 uM preincubated with enzyme for 10 mins and measured for 5 mins by fluorescence based analysis. The note with it: time 15.0 min.
Series [7] has the same target. Kind of series: Inhibition of recombinant Trypanosoma cruzi Cruzain using Z-FR-AMC as substrate at 100 uM measured for 5 mins by fluorescence based analysis.
Series [8] in a line: Hepatotoxicity in Swiss mouse infected with trypomastigote form of Trypanosoma cruzi Y assessed as plasma aspartate aminotransferase level at 50 to 100 mg/kg, po administered via gavage for 7 days from day 5 post-infection by spectrophotometry. It counts as toxicity, organism-based. The conditions noted are these: in vivo, 168 h, dose 50-100 mg/kg, time 7 day.
Series [9] in a line: Toxicity in po dosed Swiss mouse infected with trypomastigote form of Trypanosoma cruzi Y assessed as mortality administered via gavage for 7 days from day 5 post-infection and measured on day 13 post-infection. It counts as organism-based. The note with it: in vivo, 192 h, time 8 day.
The nature of series [10]: Toxicity in po dosed Swiss mouse infected with trypomastigote form of Trypanosoma cruzi Y assessed as diarrhea administered via gavage for 7 days from day 5 post-infection and measured on day 13 post-infection. It counts as organism-based. The note with it: in vivo, 192 h, time 8 day.
Series [11] deals with Trypanosoma cruzi. Kind of series: Anti-trypanosomal activity against trypomastigote form of Trypanosoma cruzi Y infected in Swiss mouse assessed as reduction in parasitemia at 10 to 100 mg/kg, po administered via gavage for 7 days from day 5 post-infection. In kind it is functional, organism-based. The note with it: dose 10-100 mg/kg, time 7.0 day.
Series [12] can be described thus: Toxicity in po dosed Swiss mouse infected with trypomastigote form of Trypanosoma cruzi Y assessed as apathy administered via gavage for 7 days from day 5 post-infection and measured on day 13 post-infection. In kind it is organism-based. The note with it: in vivo, 192 h, time 8 day.
Series [13] can be described thus: Toxicity in po dosed Swiss mouse infected with trypomastigote form of Trypanosoma cruzi Y assessed as bristly fur administered via gavage for 7 days from day 5 post-infection and measured on day 13 post-infection. In kind it is organism-based. The conditions noted are these: in vivo, 192 h, time 8 day.
Series [14] can be described thus: Hepatotoxicity in Swiss mouse infected with trypomastigote form of Trypanosoma cruzi Y assessed as plasma alanine aminotransferase level at 50 to 100 mg/kg, po administered via gavage for 7 days from day 5 post-infection by spectrophotometry. In kind it is toxicity, organism-based. The conditions noted are these: in vivo, 168 h, dose 50-100 mg/kg, time 7 day.
A short description of series [15]: Toxicity in Swiss mouse infected with trypomastigote form of Trypanosoma cruzi Y assessed as increase in weight gain at 10 to 100 mg/kg, po administered via gavage for 7 days from day 5 post-infection. It counts as organism-based. The conditions noted are these: in vivo, 168 h, dose 10-100 mg/kg, time 7 day.
Series [16] relates to Trypanosoma cruzi. Kind of series: Antitrypanosomal activity against trypomastigote form of Trypanosoma cruzi Y assessed as inhibition of parasite viability incubated for 24 hrs by light microscopy. In kind it is functional, organism-based.
The subject of another series is H9c2. The series is described as §1. In kind it is toxicity. The conditions noted are these: h9c2.
Series [17] relates to Mus musculus. Kind of series: Reduction in plasma total IgG level in Swiss mouse infected with trypomastigote form of Trypanosoma cruzi Y at 100 mg/kg, po administered via gavage for 7 days from day 5 post-infection by ELISA. It counts as functional, organism-based. The conditions noted are these: time 7.0 day.
The subject of series [18] is Trypanosoma cruzi. Kind of series: Anti-trypanosomal activity against trypomastigote form of Trypanosoma cruzi Y infected in Swiss mouse assessed as reduction in parasitemia at 100 mg/kg, po administered via gavage for 2 days from day 5 post-infection. In kind it is functional. The note with it: 48 h, time 2 day.
The subject of series [19] is Mus musculus. Kind of series: Reduction in plasma IgG2 level in Swiss mouse infected with trypomastigote form of Trypanosoma cruzi Y at 100 mg/kg, po administered via gavage for 7 days from day 5 post-infection by ELISA. It counts as functional, organism-based. The conditions noted are these: time 7.0 day.
In series [20] the test system is Mus musculus. Kind of series: Reduction in plasma IgG1 level in Swiss mouse infected with trypomastigote form of Trypanosoma cruzi Y at 100 mg/kg, po administered via gavage for 7 days from day 5 post-infection by ELISA. In kind it is functional, organism-based. The note with it: time 7.0 day.

The source made the active and inactive calls. The calls are words filed in the database; no cut-off is given here.

Sequence of Cruzipain (Trypanosoma cruzi) (P25779 123-467 limits assumed): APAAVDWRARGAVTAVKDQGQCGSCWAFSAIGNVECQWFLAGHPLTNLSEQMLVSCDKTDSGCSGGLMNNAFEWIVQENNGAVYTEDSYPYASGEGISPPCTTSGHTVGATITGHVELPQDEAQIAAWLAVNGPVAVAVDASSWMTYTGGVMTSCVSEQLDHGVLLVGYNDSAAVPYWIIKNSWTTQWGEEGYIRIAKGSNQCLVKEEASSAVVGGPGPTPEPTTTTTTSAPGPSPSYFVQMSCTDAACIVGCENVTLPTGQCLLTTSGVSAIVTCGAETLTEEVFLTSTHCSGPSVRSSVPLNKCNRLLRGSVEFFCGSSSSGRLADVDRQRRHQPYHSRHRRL

For the compound `CCCc1ccc(OCC(O)Cn2cc(-c3ccccc3)nn2)c(OC)c1` (racemic), the IC50 was 42.8 µM in the series with Trypanosoma cruzi [1] and 53.7 µM in the series with Trypanosoma cruzi [3]. In addition, the inhibition in vivo at 100 mg/kg in the series on Trypanosoma cruzi [2] came to 50%. In addition, the selectivity ratio in series [4] was determined as 0.3. The IC50 at 72 h in series [5] was 16.8 µM. Also, the inhibition in series [6] and in series [7] was 17% each time.
With `CCCc1ccc(OCC(O)Cn2cc(COc3ccc(Cl)cc3)nn2)c(OC)c1` (racemic), the Activity entry is on record as “Non-Toxic” in series [8]; “Non-Toxic” in [9]; “Non-Toxic” in series [10]; “Non-Toxic” in series [12]; “Toxic” in series [13]; “Non-Toxic” in series [14]. In series [15], the Activity result is reported as “Non-Toxic”. Also, the results for the IC50 with Trypanosoma cruzi [3] and in the series on Trypanosoma cruzi [16] were 19.7 µM and 20.7 µM, respectively. Further, the selectivity ratio in series [4] came to 6.6. In addition, the result with Trypanosoma cruzi [11] was inactive. For the same compound, in series [5], the IC50 at 72 h was found to be 132 µM. In addition, the inhibition in series [6] and in series [7] was 29.3% each time.
With `C=CCc1ccc(OCC(O)Cn2cc(COc3ccc(C(C)C)cc3)nn2)c(OC)c1` (racemic), the half-inhibitory concentration (IC50) in the series with Trypanosoma cruzi [3] worked out at 826 µM. Moreover, the selectivity ratio in series [4] came to 0.5. Besides, the IC50 at 72 h in [5] was 480 µM. Moreover, the inhibition in [6] and in series [7] was 7.2% throughout.
Consider `C=CCc1ccc(OCC(O)Cn2cc(COc3ccc(OC)cc3)nn2)c(OC)c1` (racemic), for which the IC50 with Trypanosoma cruzi [3] stood at 190 µM; in the series on H9c2, 1690 µM. Also, the selectivity ratio in [4] turned out to be 8.9. Also, the inhibition in series [6] and in series [7] was 7.2% throughout.
As to `C=CCc1ccc(OCC(O)Cn2cc(COc3ccc(Cl)cc3)nn2)c(OC)c1` (racemic), the IC50 in the series with Trypanosoma cruzi [3] stood at 37 µM. In addition, the selectivity ratio in series [4] turned out to be 1.5. In addition, the IC50 at 72 h in series [5] was found to be 58.1 µM. Moreover, the inhibition in series [6] and in [7] was 7.2% each time.
Turning to `COc1ccccc1OCC(O)Cn1cc(COc2ccc([N+](=O)[O-])cc2)nn1` (racemic), in the series on Trypanosoma cruzi [3], the IC50 came out at 60.8 µM. In addition, the selectivity ratio in series [4] turned out to be 2.1. Besides, the half-maximal inhibitory concentration (IC50) at 72 h in series [5] was found to be 134 µM. The inhibition in series [6] and in series [7] was 7.2% each time.
In the case of `O=C(Cn1ccnc1[N+](=O)[O-])NCc1ccccc1` [BENZNIDAZOLE], the inhibition entry in the series on Mus musculus [17], in the series with Mus musculus [19] and in the series with Mus musculus [20] was “Active” throughout. Moreover, the inhibition in vivo at 100 mg/kg with Trypanosoma cruzi [18] worked out at 100%. The IC50 in the series with Trypanosoma cruzi [3] turned out to be 21.5 µM; in the series with H9c2, 1690 µM; in the series on Trypanosoma cruzi [16] it was 12.7 µM. In addition, in series [4], the selectivity ratio was found to be 78.4.
Turning to `CCCc1ccc(OCC(Cn2cc(-c3ccccc3)nn2)OC)c(OC)c1` (racemic), the concentration for half-maximal inhibition (IC50) with Trypanosoma cruzi [3] worked out at 198 µM. For the same compound, the selectivity ratio in series [4] stood at 2.8. In series [5], the IC50 at 72 h came to 555 µM. Further, the inhibition in series [6] and in series [7] was 7.2% throughout.
For the compound `COc1ccccc1OCC(O)Cn1cc(COc2ccc(C(C)C)cc2)nn1` (racemic), the IC50 in the series on Trypanosoma cruzi [3] is 64.3 µM. The inhibition in series [6] and in series [7] was 7.2% each time.
`CCCc1ccc(OCC(O)Cn2cc(COc3ccccc3)nn2)c(OC)c1` (racemic): the IC50 in the series on Trypanosoma cruzi [3] came out at 75.8 µM. Besides, in series [4], the selectivity ratio was determined as 2.7. Also, in series [5], the IC50 at 72 h was 211 µM. The inhibition in series [6] and in series [7] was 7.2% throughout.
As to `COc1ccc(OCc2cn(CC(O)COc3ccccc3OC)nn2)cc1` (racemic), the IC50 in the series on Trypanosoma cruzi [3] was found to be 113 µM. Further, the selectivity ratio in [4] came out at 4.1. Moreover, the IC50 at 72 h in [5] turned out to be 469 µM. In addition, the inhibition in series [6] and in [7] was 7.2% throughout.
Take `CCCc1ccc(OCC(O)Cn2ccnn2)c(OC)c1` (racemic): the IC50 in the series with Trypanosoma cruzi [3] is 212 µM. In [4], the selectivity ratio amounted to 3.5. Moreover, the IC50 at 72 h in series [5] was 743 µM. For the same compound, the inhibition in [6] and in series [7] was 7.2% throughout.
As for `C=CCc1ccc(OCC(O)Cn2cc(COc3ccccc3)nn2)c(OC)c1` (racemic), the 50% inhibitory concentration (IC50) in the series on Trypanosoma cruzi [3] worked out at 256 µM. Also, the selectivity ratio in [4] came out at 1.6. Further, in [5], the IC50 at 72 h was found to be 410 µM. The inhibition in [6] and in series [7] was 7.2% throughout.
Regarding `CCCc1ccc(OCC(O)Cn2cc(COc3ccc(OC)cc3)nn2)c(OC)c1` (racemic), the IC50 in the series on Trypanosoma cruzi [3] was 34.4 µM. Further, in series [4], the selectivity ratio was 9.1. Further, the IC50 at 72 h in [5] stood at 315 µM. For the same compound, the inhibition in [6] and in [7] was 7.2% each time.
Take `COc1ccccc1OCC(O)Cn1cc(-c2ccccc2)nn1` (racemic): in the series on Trypanosoma cruzi [3], the IC50 stood at 126 µM. The selectivity ratio in [4] was 3.3. The IC50 at 72 h in series [5] came to 422 µM. Besides, the inhibition in series [6] and in [7] was 7.2% in each case.
For the compound `CCCc1ccc(OCC(=O)Cn2cc(-c3ccccc3)nn2)c(OC)c1`, the IC50 was determined as 558 µM with Trypanosoma cruzi [3] and 1070 µM in the series with H9c2. In series [4], the selectivity ratio is 1.9. For the same compound, the inhibition in [6] and in series [7] was 7.2% in each case.
In the case of `CCCc1ccc(OCC(Cn2cc(-c3ccccc3)nn2)OCc2ccccc2)c(OC)c1` (racemic), the IC50 in the series with Trypanosoma cruzi [3] was 335 µM. In addition, in [4], the selectivity ratio was above 1.1. Further, the IC50 at 72 h in series [5] is above 400 µM. Besides, the inhibition in series [6] and in series [7] was 7.2% each time.
As to `CCCc1ccc(OCC(O)Cn2cc(COc3ccc(C(C)C)cc3)nn2)c(OC)c1` (racemic), in the series on Trypanosoma cruzi [3], the concentration for half-maximal inhibition (IC50) was found to be 41.1 µM. Also, in series [4], the selectivity ratio turned out to be 7.3. The IC50 at 72 h in [5] was 302 µM. Also, the inhibition in [6] and in [7] was 7.2% in each case.
In the case of `C=CCc1ccc(OCC(O)Cn2cc(COc3ccc([N+](=O)[O-])cc3)nn2)c(OC)c1` (racemic), in the series on Trypanosoma cruzi [3], the IC50 amounted to 149 µM. Moreover, in [4], the selectivity ratio amounted to 2.1. The half-inhibitory concentration (IC50) at 72 h in series [5] amounted to 323 µM. Moreover, the inhibition in series [6] and in series [7] was 7.2% each time.
As for `COc1ccccc1OCC(O)Cn1cc(COc2ccc(Cl)cc2)nn1` (racemic), the IC50 in the series on Trypanosoma cruzi [3] is 121 µM. Also, in series [4], the selectivity ratio was 3.1. The IC50 at 72 h in series [5] amounted to 380 µM. Moreover, the inhibition in [6] and in [7] was 7.2% each time.
With `COc1ccccc1OCC(O)Cn1cc(COc2ccccc2)nn1` (racemic), the half-maximal inhibitory concentration (IC50) in the series on Trypanosoma cruzi [3] amounted to 112 µM. The selectivity ratio in series [4] turned out to be 3.8. For the same compound, the IC50 at 72 h in series [5] was 437 µM. The inhibition in series [6] and in series [7] was 7.2% throughout.
